From patent US10934297B2, “5-heteroaryl substituted indazole-3-carboxamides and preparation and use thereof” (Samumed, LLC, priority 2018, dated 2021) come the findings set out here.

By EC50 is commonly meant the concentration that produces a half-maximal response. A lower EC50 goes with an effect from little substance. Usually IC50 stands for the concentration needed to halve the response being measured. A word on the inhibition: it is the drop in the measured response relative to a control, in per cent.

The test system of assay [1] is IL-6. In words: IL-6 inhibition in LPS-stimulated human peripheral blood mononuclear cells (HTRF). In kind it is cell-based. To be noted: Homo sapiens, PBMC; for EC50: huPBMCs, LPS 50 ng/mL, 22 hours, IL-6 HTRF; for inhibition at 10 µM: read-out: percent inhibition at 10 μM. As to the method: Fresh Normal PB MNC (Catalog #PB001, AllCells, Alameda, Calif.) were shipped overnight at 4° C. and resuspended in Roswell Park Memorial Institute (RPMI) 1640 Medium, with GlutaMAX Supplement (Catalog #61870127, ThermoFisher Scientific, Waltham, Mass.) supplemented with 1% Penicillin-Streptomycin (Catalog #15140163. ThermoFisher Scientific, Waltham, Mass.) and 1% fetal bovine serum (FBS) (Catalog #16140089, ThermoFisher Scientific, Waltham, Mass.) assay media. Fresh normal human peripheral blood mononuclear cells (huPBMCs) were resuspended in 1% FBS-RPMI assay media with 1% Penicillin-Streptomycin 1% to a cell concentration of 1×10e6 cells/mL. […] 50 ng/mL of Lipopolysaccharides from Escherichia coli 0111:B4 (Catalog #L5293-2ML, Sigma-Aldrich, St. Louis, Mo.) was added after 2 hours and cells were incubated for another 22 hours at 37° C.-5% CO2. After 22 hour incubation, a mixture of anti-IL6 XL665 and anti-IL-6 Cryptate diluted in reconstitution buffer (Catalog #62IL6PEC, Cisbio Inc., Bedford, Mass.) was added to each well. Following incubation for 3 hours at room temperature, Homogeneous Time-Resolved Fluorescence (HTRF) was measured using the Envision (Perkin Elmer, Shelton, Conn.) at 665 nm and […]. The ratio of fluorescence at 665 nm to 620 nm was used as a readout for IL-6 quantification. All samples were processed in duplicate. Readings were normalized to DMSO treated cells and normalized activities were utilized for EC50 calculations.

The target in assay [2] is DYRK1A kinase (Homo sapiens (Human), UniProt Q13627). In words: DYRK1A kinase assay (Ser/Thr 18 peptide Z-lyte FRET). In kind it is biochemical. To be noted: read-out: EC50 (method: IC50). In outline: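 This Z-lyte FRET assay reads the coumarin/fluorescein emission ratio. Compounds were incubated with the reaction mixture for 1 h at room temperature, followed by development reagent for a further 1 h at room temperature, in duplicate.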

The test system of assay [3] is Wnt activity (Sp5-Luc reporter in SW480 cells). In words: Screening assay for Wnt activity: Sp5-Luc reporter gene assay in SW480 colon carcinoma cells. In kind it is cell-based, human. To be noted: Homo sapiens, 36 to 48 hours. In outline: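 SW480 colon carcinoma cells stably carrying a lentiviral luciferase reporter driven by an Sp5 promoter with eight TCF/LEF sites, plated at 4,000 cells/well in DMEM with 1% FBS. Compound exposure for 36–48 h at 37 °C, then luminescence read. Signals normalized to DMSO; EC50 from four-parameter nonlinear fit.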
Background: Reporter assays use an easily measured gene product as a stand-in for the process of interest.

The test system of assay [4] is primary human fibroblasts derived from IPF patients (LL29 cells). In words: Inhibition of the fibrotic process: αSMA staining in TGF-β1 treated LL29 fibroblasts. The format is cell-based. The conditions noted are these: Homo sapiens, Fibroblast, 96 h; LL29 cells, TGF-β1 20 ng/mL, 4 days, % αSMA positive cells. In outline: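 LL29 fibroblasts from IPF patients, in F12 medium with 1% FBS, treated with TGF-β1 plus compound; TGF-β1 with DMSO as positive control, DMSO alone as negative control. After 4 days' incubation, SYTOX green nucleic acid stain added at 1 μM final, 30 min at room temperature.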

For assay [5], the target named is GSK3β kinase (Homo sapiens (Human), UniProt P49841). Nature of the assay: GSK3β kinase assay (Ser/Thr 09 peptide Z-lyte FRET). The format is biochemical. The conditions noted are these: read-out: EC50 (method: IC50). Summed up:
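Non-radioactive Z-lyte FRET read-out, kinase activity expressed as coumarin/fluorescein emission ratio. Compounds incubated with the reaction mixture one hour at room temperature in duplicate, then development buffer added for another hour. IC50 from non-linear regression of dose-response curves.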

Assay [6] concerns SW480 colon carcinoma cells. Nature of the assay: Cell viability assay (CellTiter-Glo) in SW480 colon carcinoma cells. In kind it is cell-based, human. The conditions noted are these: Homo sapiens, 96 h, four days. In outline:
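SW480 cells stably carrying an Sp5-promoter luciferase reporter were plated at 2,000 cells/well in DMEM with 1% FBS and treated with compound for four days at 37 °C. Viability was read as ATP luminescence with CellTiter-Glo after about 12 min; DMSO-treated wells served as controls.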
Background: ATP-based viability assays read luminescence as a measure of living cells.

Sequence of GSK3β kinase (P49841 whole entry): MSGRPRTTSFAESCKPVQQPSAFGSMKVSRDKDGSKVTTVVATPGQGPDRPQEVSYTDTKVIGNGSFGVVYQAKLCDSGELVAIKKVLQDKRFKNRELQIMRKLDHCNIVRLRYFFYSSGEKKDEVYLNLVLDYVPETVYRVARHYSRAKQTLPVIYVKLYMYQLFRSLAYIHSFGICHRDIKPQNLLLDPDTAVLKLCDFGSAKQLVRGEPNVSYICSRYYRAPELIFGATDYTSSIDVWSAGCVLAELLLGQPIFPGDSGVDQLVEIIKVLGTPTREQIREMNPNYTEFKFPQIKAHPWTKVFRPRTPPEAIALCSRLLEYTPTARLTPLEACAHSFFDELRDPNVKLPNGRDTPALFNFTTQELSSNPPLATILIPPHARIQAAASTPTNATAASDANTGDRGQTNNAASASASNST

For `O=C(N[C@H]1CC[C@H](CN2CC(F)C2)CC1)c1n[nH]c2ccc(-c3cnn(C4CC4)c3)cc12` [Compound 26, 5-(1-Cyclopropyl-1H-pyrazol-4-yl)-N-((1R,4R)-4-((3-fluoroazetidin-1-yl)methyl)cyclohexyl)-1H-indazole-3-carboxamide], the EC50 in assay [1] is 1040 nM; in assay [3], 1180 nM; in assay [4], greater than 10000 nM; in assay [6] it was 849 nM. Also, the IC50 was determined as 5 nM in assay [2] and 34 nM in assay [5].

Take `O=C(N[C@H]1CC[C@H](CN2CC(F)C2)CC1)c1n[nH]c2ccc(-c3cnn4c3CCCC4)cc12` [Compound 27, N-((1R,4R)-4-((3-Fluoroazetidin-1-yl)methyl)cyclohexyl)-5-(4,5,6,7-tetrahydropyrazolo[1,5-a]pyridin-3-yl)-1H-indazole-3-carboxamide]: the EC50 stood at 3820 nM in assay [1], 677 nM in assay [3], 346 nM in assay [4] and 6450 nM in assay [6]. In addition, the concentration for half-maximal inhibition (IC50) came out at 4 nM in assay [2] and 12 nM in assay [5].

As to `Cn1cc(-c2ccc3[nH]nc(C(=O)N[C@H]4CC[C@H](CN5CCCC5)CC4)c3c2)cn1` [Compound 28, 5-(1-Methyl-1H-pyrazol-4-yl)-N-((1R,4R)-4-(pyrrolidin-1-ylmethyl)cyclohexyl)-1H-indazole-3-carboxamide], the EC50 in assay [1] is 401 nM; in assay [3], 688 nM; in assay [4], 409 nM; in assay [6], 442 nM. Further, the half-inhibitory concentration (IC50) in assay [2] was 2 nM; in assay [5], 11 nM.

Take `CC(C)CN1CC[C@@H](NC(=O)c2n[nH]c3ccc(-c4cnn(C)c4)cc23)[C@@H](F)C1` [Compound 31, N-((3S,4R)-3-Fluoro-1-isobutylpiperidin-4-yl)-5-(1-methyl-1H-pyrazol-4-yl)-1H-indazole-3-carboxamide]: the EC50 was 4260 nM in assay [1], 610 nM in assay [3], 2460 nM in assay [4] and greater than 10000 nM in assay [6]. The IC50 in assay [2] turned out to be 26 nM; in assay [5] it was 55 nM.

As for `CC(C)CN1CC[C@@H](NC(=O)c2n[nH]c3ccc(-c4cnn(C)c4)cc23)[C@H](F)C1` [Compound 32, N-((3R,4R)-3-Fluoro-1-isobutylpiperidin-4-yl)-5-(1-methyl-1H-pyrazol-4-yl)-1H-indazole-3-carboxamide], the EC50 in assay [1] worked out at 1270 nM; in assay [3], 1830 nM; in assay [4], 372 nM; in assay [6], 1320 nM. The results for the IC50 in assay [2] and in assay [5] were 5 nM and 31 nM, respectively.

On to `CC(C)CN1CC[C@H](NC(=O)c2n[nH]c3ccc(-c4cnn(C)c4)cc23)[C@@H](F)C1` [Compound 33, N-((3 S,4S)-3-Fluoro-1-isobutylpiperidin-4-yl)-5-(1-methyl-1H-pyrazol-4-yl)-1H-indazole-3-carboxamide], for which the EC50 in assay [1] is 3150 nM; in assay [3] it was 267 nM; in assay [4] it was 43 nM; in assay [6] it was greater than 10000 nM. Moreover, the values for the IC50 in assay [2] and in assay [5] were 24 nM and 36 nM, respectively.

For the molecule `CC(C)(F)CN1CCC(NC(=O)c2n[nH]c3ccc(-c4cn[nH]c4)cc23)CC1` [Compound 36, N-(1-(2-Fluoro-2-methylpropyl)piperidin-4-yl)-5-(1H-pyrazol-4-yl)-1H-indazole-3-carboxamide], the EC50 in assay [1] was found to be 348 nM; in assay [3] it was 474 nM; in assay [4] it was 147 nM; in assay [6], 691 nM. The IC50 in assay [2] is 7 nM; in assay [5], 23 nM.

On to `Cn1cc(-c2ccc3[nH]nc(C(=O)NC4CCN(CC(C)(C)F)CC4)c3c2)cn1` [Compound 37, N-(1-(2-Fluoro-2-methylpropyl)piperidin-4-yl)-5-(1-methyl-1H-pyrazol-4-yl)-1H-indazole-3-carboxamide], for which the EC50 came to 546 nM in assay [1], 747 nM in assay [3], 118 nM in assay [4] and 849 nM in assay [6]. For the same molecule, the IC50 in assay [2] amounted to 5 nM; in assay [5], 14 nM.

For the molecule `Cn1cc(-c2cc(Cl)c3[nH]nc(C(=O)NC4CCN(CC(C)(C)F)CC4)c3c2)cn1` [Compound 38, 7-Chloro-N-(1-(2-fluoro-2-methylpropyl)piperidin-4-yl)-5-(1-methyl-1H-pyrazol-4-yl)-1H-indazole-3-carboxamide], the EC50 in assay [1], in assay [3], in assay [4] and in assay [6] was greater than 10000 nM in each case. Moreover, the inhibition at 10 µM in assay [1] amounted to 8.8%. Further, the concentration for half-maximal inhibition (IC50) in assay [2] and in assay [5] was greater than 10000 nM in each case.

For the molecule `CCn1cc(-c2ccc3[nH]nc(C(=O)NC4CCN(CC(C)(C)F)CC4)c3c2)cn1` [Compound 39, 5-(1-Ethyl-1H-pyrazol-4-yl)-N-(1-(2-fluoro-2-methylpropyl)piperidin-4-yl)-1H-indazole-3-carboxamide], the concentration giving a half-maximal response (EC50) in assay [1] was 1260 nM; in assay [3], 3880 nM; in assay [4], 272 nM; in assay [6], 1310 nM. Moreover, the IC50 in assay [2] was determined as 22 nM; in assay [5], 33 nM.

With `CC(C)(F)CN1CCC(NC(=O)c2n[nH]c3ccc(-c4cnn(C5CC5)c4)cc23)CC1` [Compound 40, 5-(1-Cyclopropyl-1H-pyrazol-4-yl)-N-(1-(2-fluoro-2-methylpropyl)piperidin-4-yl)-1H-indazole-3-carboxamide], the EC50 was 1930 nM in assay [1], 1720 nM in assay [3], 68 nM in assay [4] and 1080 nM in assay [6]. Besides, the IC50 amounted to 45 nM in assay [2] and 687 nM in assay [5].

Turning to `Cn1ncc(-c2ccc3[nH]nc(C(=O)NC4CCN(CC(C)(C)F)CC4)c3c2)c1C(F)F` [Compound 41, 5-(5-(Difluoromethyl)-1-methyl-1H-pyrazol-4-yl)-N-(1-(2-fluoro-2-methylpropyl)piperidin-4-yl)-1H-indazole-3-carboxamide], the EC50 is 2860 nM in assay [1], 828 nM in assay [3], 342 nM in assay [4] and 3000 nM in assay [6]. The IC50 in assay [2] was determined as 250 nM; in assay [5] it was 76 nM.

As for `Cc1noc(C)c1-c1ccc2[nH]nc(C(=O)NC3CCN(CC(C)(C)F)CC3)c2c1` [Compound 43, 5-(3,5-Dimethylisoxazol-4-yl)-N-(1-(2-fluoro-2-methylpropyl)piperidin-4-yl)-1H-indazole-3-carboxamide], the EC50 was 9150 nM in assay [1], greater than 10000 nM in assay [3], 2170 nM in assay [4] and greater than 10000 nM in assay [6]. Besides, the IC50 is 67 nM in assay [2] and 1060 nM in assay [5].

For `CN1CC2(CCC(NC(=O)c3n[nH]c4ccc(-c5cnn(C)c5)cc34)CC2)C1` [Compound 45, 5-(1-Methyl-1H-pyrazol-4-yl)-N-(2-methyl-2-azaspiro [3.5]nonan-7-yl)-1H-indazole-3-carboxamide], the EC50 was found to be 1270 nM in assay [1], 1650 nM in assay [3], 355 nM in assay [4] and 4770 nM in assay [6]. In addition, the IC50 worked out at 6 nM in assay [2] and 31 nM in assay [5].

Take `O=C(Nc1ccc(F)cc1)c1n[nH]c2ccc(-c3cnn(C4CC4)c3)cc12` [Compound 46, 5-(1-Cyclopropyl-1H-pyrazol-4-yl)-N-(4-fluorophenyl)-1H-indazole-3-carboxamide]: the 50% effective concentration (EC50) was greater than 10000 nM in assay [1], 1460 nM in assay [3], 543 nM in assay [4] and 4500 nM in assay [6]. In addition, the inhibition at 10 µM in assay [1] is 48.3%. For the same molecule, the IC50 worked out at 4450 nM in assay [2] and 704 nM in assay [5].
